The values below come from patent publication US20200278355A1, “CONJUGATED PROTEINS AND USES THEREOF” (THE SCRIPPS RESEARCH INSTITUTE, priority 2017, published 2020).

In the assay the target is T1, TXNDC12 (Homo sapiens, UniProt O95881).
T1 construct: endogenous in cells; host or cells: H460
Briefly: isoTOP-ABPP of compound-treated H460 cells: TXNDC12. The conditions noted are these: TXNDC12 C66; 40 μM. It is filed as cell-based. How it is done: For analysis of NR0B1 ligands or control compound reactivity, H460 cells or H460 cells expressing luciferase in a 10 cm plate were incubated with indicated compounds in serum/dye-free RPMI for 3 hours at 37° C. Cells were washed once ice-cold PBS and lysed in 1% Triton X-100 dissolved in PBS with protease inhibitors (Sigma) by sonication. Samples were clarified by centrifugation for 10 min at 16,000×g. Lysate was adjusted to 1.5 mg ml^−1 in 500 μL.
Samples were labeled for 1 h at ambient temperature with 100 μM iodoacetamide alkyne (1, IA-alkyne, 5 μL of 10 mM stock in DMSO). Samples were conjugated by copper-catalyzed azide-alkyne cycloaddition (CuAAC) to isotopically labeled, TEV-cleavable tags (TEV-tags). Heavy CuAAC reaction mixtures was added to the DMSO-treated or shGFP control samples and light CuAAC reaction mixture was added to compound-treated or shNRF2 samples. The CuAAC reaction mixture consisted of TEV tags (light or heavy, 10 μL of 5 mM stocks in DMSO, final concentration=100 μM), 1 mM tris(2-carboxyethyl)phosphine hydrochloride (TCEP; fresh 50× stock in water, final concentration=1 mM), ligand (17× stock in DMSO:t-butanol 1:4, final concentration=100 μM) and 1 mM CuSO4 (50× stock in water, final concentration=1 mM). The samples were allowed to react for 1 h at which point the samples were centrifuged (16,000×g, 5 min, 4° C.). […]

T1 sequence (O95881 27-172): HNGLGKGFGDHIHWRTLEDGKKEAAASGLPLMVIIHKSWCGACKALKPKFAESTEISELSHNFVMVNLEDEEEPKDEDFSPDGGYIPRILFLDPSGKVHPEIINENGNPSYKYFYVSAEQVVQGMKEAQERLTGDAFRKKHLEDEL

As for `O=C(c1ccc(N2CCOCC2)cc1)N1CCCC(N(Cc2ccccc2)C(=O)CCl)CC1` (stereo not shown) [BPK-29, N-benzyl-2-chloro-N-(1-(4-morpholinobenzoyl)azepan-4-yl)acetamide], the “BPK-29-competed isoTOP-ABPP analysis” value is “Yes (Competed defined as showing R value ≥ 3.0 at 40 μM of test compound)”.
